Laboratory results reported in patent publication US10130096B2, “Method for protecting useful plants or plant propagation material” (SYNGENTA PARTICIPATIONS AG, priority 2011, dated 2018).

Assays:
Assay type in all cases: cell-based
[1] = tested on: Monographella nivalis (Microdochium nivale); test: Monographella nivalis liquid culture growth inhibition; details: photometric, 4-5 days after application, read-out: control on Monographella nivalis
Experimental: (§1) Conidia of the fungus from cryogenic storage are directly mixed into nutrient broth (PDB potato dextrose broth). After placing a (DMSO) solution of test compound into a microtiter plate (96-well format), the nutrient broth containing the fungal spores is added. The test plates are incubated at 24° C. and the inhibition of growth is determined photometrically 4-5 days after application.

[2] = tested on: Pythium ultimum; test: Pythium ultimum liquid culture growth inhibition; details: Globisporangium ultimum, photometric, 2-3 days after application, read-out: control on Pythium ultimum
Experimental: Mycelia fragments and oospores of a newly grown liquid culture of the fungus are directly mixed into nutrient broth (PDB potato dextrose broth). After placing a (DMSO) solution of test compound into a microtiter plate (96-well format), the nutrient broth containing the fungal mycelia/spore mixture is added.

[3] = tested on: Fusarium culmorum; test: Fusarium culmorum liquid culture growth inhibition; details: photometric, 3-4 days after application, read-out: control on Fusarium culmorum
Experimental: as §1, with “3-4” for “4-5”

[4] = tested on: Botryotinia fuckeliana (Botrytis cinerea); test: Botryotinia fuckeliana liquid culture growth inhibition; details: photometric, 3-4 days after application, read-out: control on Botryotinia fuckeliana
Experimental: Conidia of the fungus from cryogenic storage are directly mixed into nutrient broth (Vogels broth). After placing a (DMSO) solution of test compound into a microtiter plate (96-well format), the nutrient broth containing the fungal spores is added.

[5] = tested on: Glomerella lagenarium (Colletotrichum lagenarium); test: Glomerella lagenarium liquid culture growth inhibition; details: Colletotrichum orbiculare, photometric, 3-4 days after application, read-out: control on Glomerella lagenarium
Experimental: (§2) Conidia of the fungus from cryogenic storage are directly mixed into nutrient broth (PDB potato dextrose broth). After placing a (DMSO) solution of test compound into a microtiter plate (96-well format), the nutrient broth containing the fungal spores is added.

[6] = tested on: Thanatephorus cucumeris (Rhizoctonia solani); test: Thanatephorus cucumeris liquid culture growth inhibition; details: photometric, 3-4 days after application, read-out: control on Thanatephorus cucumeris
Experimental: Mycelia fragments of a newly grown liquid culture of the fungus are directly mixed into nutrient broth (PDB potato dextrose broth). After placing a (DMSO) solution of the test compounds into a microtiter plate (96-well format), the nutrient broth containing the fungal material is added. The test plates are incubated at 24° C. and the inhibition of growth is determined photometrically 3-4 days after application.

[7] = tested on: Mycosphaerella arachidis (Cercospora arachidicola); test: Mycosphaerella arachidis liquid culture growth inhibition; details: photometric, 4-5 days after application, read-out: control on Mycosphaerella arachidis
Experimental: as §2

Measured: inhibition of growth at 200 ppm

OB1OCc2ccc(Cl)cc21 [Compound 6, 6-Chloro-3H-benzo[c][1,2]oxaborol-1-ol]
≥ 80%: all assays above

OB1OCc2c1ccc1ccccc21 [Compound 16, 1H-2-Oxa-3-bora-cyclopenta[a]naphthalen-3-ol]
≥ 80%: [1] | [4] | [5] | [7]

OB1OC(c2ccccc2)c2ccccc21 (stereo not drawn) [Compound 19, 3-Phenyl-3H-benzo[c][1,2]oxaborol-1-ol]
≥ 80%: [1] | [2] | [5] | [7]

N[C@H](COB1OCc2cc(Cl)ccc21)Cc1ccccc1 [Compound 20, (S)-1-Benzyl-2-(5-chloro-3H-benzo[c][1,2]oxaborol-1-yloxy)-ethylamine]
≥ 80%: all assays above

CC(C)(N)COB1OCc2cc(Cl)ccc21 [Compound 21, 2-(5-Chloro-3H-benzo[c][1,2]oxaborol-1-yloxy)-1,1-dimethyl-ethylamine]
≥ 80%: all assays above

N[C@@H](COB1OCc2cc(Cl)ccc21)c1ccccc1 [Compound 23, (R)-2-(5-Chloro-3H-benzo[c][1,2]oxaborol-1-yloxy)-1-phenyl-ethylamine]
not listed: [6]
≥ 80%: all other assays above

N[C@H](COB1OCc2cc(Cl)ccc21)c1ccccc1 [Compound 25, (S)-2-(5-Chloro-3H-benzo[c][1,2]oxaborol-1-yloxy)-1-phenyl-ethylamine]
not listed: [6]
≥ 80%: all other assays above

c1ccc2c(c1)COB2Oc1cccc2cccnc12 [Compound 31, 8-(3H-Benzo[c][1,2]oxaborol-1-yloxy)-quinoline]
not listed: [6]
≥ 80%: all other assays above

CC(C)(N)COB1OCc2ccccc21 [Compound 32, 2-(3H-Benzo[c][1,2]oxaborol-1-yloxy)-1,1-dimethyl-ethylamine]
not listed: [6]
≥ 80%: all other assays above

CC(C)(C)c1ccc2c(c1)COB2OCCN [Compound 33, 2-(5-tert-Butyl-3H-benzo[c][1,2]oxaborol-1-yloxy)-ethylamine]
≥ 80%: [7]

CC(C)(C)c1ccc2c(c1)COB2O [Compound 34, 5-tert-Butyl-3H-benzo[c][1,2]oxaborol-1-ol]
≥ 80%: [1] | [5] | [7]

NCCOB1OCc2cc(Oc3ccccc3)ccc21 [Compound 35, 2-(5-Phenoxy-3H-benzo[c][1,2]oxaborol-1-yloxy)-ethylamine]
≥ 80%: [1] | [5] | [7]
